# Bridge positions count the residues as written; N and C are the ends. Peptide text beside a SMILES is read from it.
# Biological target: human stratum cornium chymotrypsin (hSCC) (Homo sapiens, UniProt P49862)
# Assay: Mass spectrometric screening of a protein library against immobilized hSCC in the presence of competitor Ecotin
# Assay type: binding
# Details: library 10 nM per member, competitor Ecotin at 1 nM, 100 nM, 4 hrs incubation, biotinylated hSCC on streptavidin beads
# From the text: In this Example, mass spectrometric screening experiments are described. FIGS. 10-13 provide data and calculations obtained during these experiments. Inhibitors of human stratum cornium chymotrypsin (hSCC) were screened from a protein library made of BBI-loop-BLA (See e.g., U.S. patent application Ser. Nos. 10/984,270 and 10/984,410; and PCT Appln. Nos. US04/36976, US04/36979; and US04/36980), all of which are incorporated by reference herein). The protein library consisted of a protein backbone in which three non-consecutive positions were randomized (cysteine constrained) at the N-terminus of the protein. HSCC (screening target) (Swissprot, accession number P49862) was biotinylated and immobilized on streptavidin beads (MagnaBind Beads; Pierce).
# HSCC was incubated with a protein library at 10 nM per library member in the presence of a competitor (Ecotin; Sigma) added at 1 nM, 10 nM, and 100 nM concentrations. Following incubation (4 hrs), the beads were washed with incubation buffer to remove nonspecific binders and specific binders were eluted with an elution solution.
# The recovered binders were concentrated (vacuum concentration), resuspended in a digestion buffer, reduced, alkylated, and digested with proteolytic enzyme (Lys-c; Roche). The resulting protein digests were analyzed by capillary LC-ESI-MS/MS. […]
# Sequence of human stratum cornium chymotrypsin (hSCC) (P49862 30-253): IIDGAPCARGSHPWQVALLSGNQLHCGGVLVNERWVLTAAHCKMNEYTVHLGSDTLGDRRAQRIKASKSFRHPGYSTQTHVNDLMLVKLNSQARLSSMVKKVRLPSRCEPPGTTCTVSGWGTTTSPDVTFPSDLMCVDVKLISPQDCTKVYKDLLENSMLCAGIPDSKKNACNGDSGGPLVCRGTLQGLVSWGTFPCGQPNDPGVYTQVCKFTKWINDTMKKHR
structure (smiles),measurement,value
C[C@@H](O)[C@@H]1NC(=O)[C@@H](NC(=O)[C@@H]2CCCN2)CSSC[C@@H](C(=O)N[C@@H](Cc2ccc(O)cc2)C(=O)NCC(=O)NCC(=O)NCC(=O)N[C@@H](CCCCN)C(=O)O)NC(=O)[C@H](CCC(N)=O)NC(=O)[C@@H]2CCCN2C(=O)[C@@H]2CCCN2C(=O)[C@H](Cc2ccc(O)cc2)NC(=O)[C@H](CO)NC(=O)[C@H](Cc2ccccc2)NC1=O [pj02] (H-PCTFSYPPQCYGGGK-OH; disulfide 2-10 (inferred); N-terminus and C-terminus assumed),binder observed after elution (capillary LC-ESI-MS/MS),observed under all conditions

# From patent US20110098184A1, “Competitve differntial screeing” (priority 2004, published 2011)
